{"source": "paper PMC6920794", "about": "“Evaluation of Novel Chalcone-Thiosemicarbazones Derivatives as Potential Anti-Leishmania amazonensis Agents and Its HSA Binding Studies” (Biomolecules, 2019)", "key": {"[1]": {"biological_target": "T1, human serum albumin (HSA) (Homo sapiens, UniProt P02768)", "T1 construct": "purchased Sigma Aldrich, St. Louis, MO, USA", "T1 sequence (P02768 25-609)": "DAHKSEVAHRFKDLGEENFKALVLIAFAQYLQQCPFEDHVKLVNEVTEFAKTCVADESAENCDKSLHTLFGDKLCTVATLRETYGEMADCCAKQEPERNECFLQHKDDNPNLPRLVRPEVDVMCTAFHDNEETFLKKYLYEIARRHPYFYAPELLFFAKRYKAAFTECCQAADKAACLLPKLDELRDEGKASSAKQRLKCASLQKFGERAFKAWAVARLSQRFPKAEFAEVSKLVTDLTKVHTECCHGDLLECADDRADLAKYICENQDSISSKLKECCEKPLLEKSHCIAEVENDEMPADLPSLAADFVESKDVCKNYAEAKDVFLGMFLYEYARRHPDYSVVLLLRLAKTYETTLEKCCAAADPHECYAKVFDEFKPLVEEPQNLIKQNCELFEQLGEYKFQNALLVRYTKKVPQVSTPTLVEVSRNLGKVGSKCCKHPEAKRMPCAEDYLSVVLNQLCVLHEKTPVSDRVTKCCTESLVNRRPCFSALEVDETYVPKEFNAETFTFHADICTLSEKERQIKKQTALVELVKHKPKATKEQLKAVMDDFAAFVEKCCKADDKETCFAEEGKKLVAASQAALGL", "assay": "HSA binding, steady-state fluorescence quenching", "conditions": "for KSV Stern-Volmer quenching constant: PBS pH 7.4", "method": "The chemicals HSA and PBS buffer were purchased from Sigma Aldrich, St. Louis, MO, USA and the pH of buffer solution was checked (pH = 7.40). Jasco J-815 optical spectrometer (Jasco Easton, MD, USA) was used as equipment for steady-state fluorescence and circular dichroism (CD) spectra measurements and a thermostatic cuvette holder Jasco PFD-425S15F (Jasco Easton, MD, USA) was applied for control of temperature in the quartz cell (1.0 cm optical path). All spectra were recorded as the average of three scans with appropriate background corrections. For steady-state fluorescence measurements it was applied 305–450 nm range as emission wavelength (λexc = 295 nm) at 289K, 296K, 303K and 310K. First, it was recorded spectra for HSA solution (1.00 × 10^−5 M, in PBS) and then it was added manually the compound 5e, achieving final ligand concentrations of 0.35; 0.70; 1.05; 1.40; 1.74; 2.09; 2.44; and 2.78 × 10^−5 M.\nIn order to delete the possible absorption contribution of the compound 5e in the steady-state fluorescence results, inner filter effect was applied, according to the Equation 2 [33]:(2) Fcor=FObs10^[Aex+Aem/2] where Fcor and Fobs are the corrected and observed fluorescence intensity values, while Aex and Aem represent the absorbance value at the excitation (λ = 295 nm: ε = 6,235 cm^−1M^−1 in PBS) and emission wavelengths (λ = 340 nm: ε = 4,550 cm^−1M^−1 in PBS).\nThe steady-state fluorescence results for the interaction HSA:5e were analyzed according to Stern-Volmer (Equation 3), double logarithmic (Equation 4), van’t Hoff (Equation 5) and Gibbs’ free energy (Equation 6) approximations:(3) F0/F=1+Ksv[Q]=1+kqτ0[Q] (4) log(F0−F/F)=logKa+nlog[Q] (5) lnKa=−ΔH°/RT+ΔS°/R (6) ΔG°=ΔH°−TΔS° where F0 and F are the steady-state fluorescence intensities of HSA in the absence and presence of 5e, respectively. [Q], KSV and kq are the 5e concentration, Stern-Volmer quenching constant and bimolecular quenching rate constant, respectively. τ0 is the experimental fluorescence lifetime of HSA in the absence 5e (5.98 ± 0.15) × 10^−9 s. Ka and ƒ are the binding constant and fraction of the initial fluorescence intensity corresponding to the fluorophore which is accessible by the quencher (f ≈ 1.00), respectively. ΔH°, ΔS° and ΔG° are the enthalpy, entropy and Gibbs’ free energy change, respectively. T and R are the temperature (289 K, 296 K, 303 K and 310 K) and gas constant (8.3145 Jmol^−1K^−1), respectively. All quantitative values were expressed as “± SD” (obtained through three scans)."}, "[2]": {"system": "L. amazonensis intracellular amastigotes", "assay": "Intracellular amastigotes assay in infected macrophages", "type": "cell-based, Leishmania amazonensis", "method": "Peritoneal macrophages were obtained BALB/c mice with cold Roswell Park Memorial Institute (RPMI) 1640 medium (Sigma Aldrich, St. Louis, MO, USA) supplemented as above. The cell suspension was adjusted to 1 × 10^6 macrophage/mL and incubated in a LAB-TEK 8-chamber slide (Nunc, Roskilde, Denmark) at 310K and 5% CO2 for 1 h. Non-adherent cells were removed and stationary-phase L. amazonensis promastigotes were added at a 3:1 parasite/macrophage ratio. The cultures were incubated for a further 4 h, and free parasites were removed. The chambers were washed, and the monolayers were incubated with the compounds for 48 h. Infected macrophages incubated only in the culture medium were used as controls to compare with the infected treated macrophages. […] The cultures were fixed in methanol and stained with the hematological system Instant Prov (Newprov®, Curitiba, Brazil). The slides were examined by light microscopy, and the number of infected macrophages and the mean number of parasites per macrophage were determined in 100 cells counted. The experiments were performed twice in triplicate. The percentage of infected macrophages was calculated by dividing the number of infected macrophages by the total number of macrophages (infected and uninfected) counted on the slides, multiplied by 100. To determine the infection index, the percentage of infected macrophages was multiplied by the mean number of parasites per macrophage. The percentage inhibition of infection was calculated by multiplying the difference between the infection index of the control and the compound by 100 and dividing by the infection index (IF) of the control using the Equation (1):IF = % infected cells × amastigotes number/total number of macrophages(1) The IC50 ± SD (SD: standard deviation) values were obtained by a sigmoidal model using Origin 6.0 with statistical error limits up to 10%. All tests were conducted in duplicate for each concentration, and two independent assays were performed."}, "[3]": {"system": "murine peritoneal macrophages", "assay": "Macrophage cytotoxicity (resazurin)", "type": "cell-based", "conditions": "BALB/c, mouse, 48 h, pH 7.2", "method": "Peritoneal macrophages from albino laboratory-bred strain (BALB/c) mice were obtained in RPMI 1640 medium at pH 7.2 (Gibco, New York, NY, USA) supplemented with 10% (v/v) heat-inactivated fetal bovine serum, 100 U/mL penicillin and 0.1 mg/mL of streptomycin and distributed (1 × 10^6 macrophages/well) in triplicate in 96-well plates (Falcon Co., Franklin Lakes, USA) and incubated for 1 h in a 5% CO2 atmosphere incubator at 310K. The supernatant was removed, and the compounds were added to the plate at concentrations from 10 µM to 50 µM. Next, the cultures were incubated for 48 h in a CO2 incubator at 310K. After incubation, the supernatant was removed and a resazurin solution (50 µM) was added to each well and incubated at 310K for 4 h. Furthermore, the fluorescence was measured using a wavelength of 560 nm for excitation and 590 nm for detection (Molecular Devices, Silicon Valley, USA). Results were expressed as the percentage of viable cells compared to the control cells treated with the highest DMSO dose used to dissolve the drugs. The 50% cytotoxic concentration (CC50) was calculated using GraphPad Prism 6.0 software (GraphPad Company, San Diego, CA, USA)."}}, "note": "Read-outs that look alike come from different tables or passages of the source.", "data": [{"smiles": "NC(=S)N/N=C(\\C=C\\c1ccc(Cl)cc1)c1ccccc1", "note": "[Compound 5e, (1E,2E)-3-(4′-chlorophenyl)-1-phenylprop-2-en-1-one thiosemicarbazone]", "values": [{"measurement": "n number of binding sites", "setting": "[1]", "result": "~ 1"}, {"measurement": "kq bimolecular quenching rate constant", "setting": "[1]; 289 K", "result": "4.15e+12", "unit": "M⁻¹ s⁻¹"}, {"measurement": "n number of binding sites", "setting": "[1]; 289 K", "result": "1.05 ± 0.01"}, {"measurement": "ΔG° Gibbs' free energy change", "setting": "[1]; 289 K", "result": "−26.1", "unit": "kJmol^−1"}, {"measurement": "KSV Stern-Volmer quenching constant", "setting": "[1]; 289 K", "result": "2.48 ± 0.52 ×10^4 M^−1"}, {"measurement": "Kd", "setting": "[1]; 289 K, double logarithmic approximation, read-out: Ka binding constant (converted)", "result": 19.4, "unit": "µM"}, {"measurement": "kq bimolecular quenching rate constant", "setting": "[1]; 296 K", "result": "4.16e+12", "unit": "M⁻¹ s⁻¹"}, {"measurement": "n number of binding sites", "setting": "[1]; 296 K", "result": "1.07 ± 0.01"}, {"measurement": "ΔG° Gibbs' free energy change", "setting": "[1]; 296 K", "result": "−26.6", "unit": "kJmol^−1"}, {"measurement": "KSV Stern-Volmer quenching constant", "setting": "[1]; 296 K", "result": "2.49 ± 0.50 ×10^4 M^−1"}, {"measurement": "Kd", "setting": "[1]; 296 K, double logarithmic approximation, read-out: Ka binding constant (converted)", "result": 20.6, "unit": "µM"}, {"measurement": "kq bimolecular quenching rate constant", "setting": "[1]; 303 K", "result": "4.34e+12", "unit": "M⁻¹ s⁻¹"}, {"measurement": "n number of binding sites", "setting": "[1]; 303 K", "result": "1.06 ± 0.01"}, {"measurement": "ΔG° Gibbs' free energy change", "setting": "[1]; 303 K", "result": "−27.1", "unit": "kJmol^−1"}, {"measurement": "KSV Stern-Volmer quenching constant", "setting": "[1]; 303 K", "result": "2.59 ± 0.51 ×10^4 M^−1"}, {"measurement": "Kd", "setting": "[1]; 303 K, double logarithmic approximation, read-out: Ka binding constant (converted)", "result": 21.9, "unit": "µM"}, {"measurement": "kq bimolecular quenching rate constant", "setting": "[1]; 310 K", "result": "4.6e+12", "unit": "M⁻¹ s⁻¹"}, {"measurement": "n number of binding sites", "setting": "[1]; 310 K", "result": "1.05 ± 0.01"}, {"measurement": "ΔG° Gibbs' free energy change", "setting": "[1]; 310 K", "result": "−27.6", "unit": "kJmol^−1"}, {"measurement": "KSV Stern-Volmer quenching constant", "setting": "[1]; 310 K", "result": "2.75 ± 0.33 ×10^4 M^−1"}, {"measurement": "Kd", "setting": "[1]; 310 K, double logarithmic approximation, read-out: Ka binding constant (converted)", "result": 22.8, "unit": "µM"}, {"measurement": "Kd", "setting": "[1]; all temperatures, read-out: Ka binding constant (order of magnitude)", "result": "~100", "unit": "µM"}, {"measurement": "decrease of HSA fluorescence emission", "setting": "[1]; maximum addition of the ligand 2.78 × 10^−5 M, HSA 1.00 × 10^−5 M", "result": "about 50%"}, {"measurement": "ΔH° enthalpy change", "setting": "[1]; van't Hoff plot, 289–310 K", "result": "−5.79 ± 0.27", "unit": "kJmol^−1"}, {"measurement": "ΔS° entropy change", "setting": "[1]; van't Hoff plot, 289–310 K", "result": "7.02 ± 0.09 ×10^−2 kJmol^−1K^−1"}, {"measurement": "IC50", "setting": "[2]; Leishmania amazonensis, Peritoneal macrophage, in Mus musculus, 48 h, L. amazonensis-infected murine peritoneal macrophages, 48 h of culture", "result": "4.47 ± 0.42", "unit": "µM"}, {"measurement": "Selectivity Index (SI)", "setting": "[2]; SI = LD50/IC50 intracellular amastigotes", "result": 7.27}, {"measurement": "Macrophages LD50", "setting": "[3]", "result": "32.48 ± 1.81", "unit": "µM"}]}]}
